{
  "source": "paper PMC5656596",
  "about": "“Yucasin DF, a potent and persistent inhibitor of auxin biosynthesis in plants” (Scientific Reports, 2017)",
  "key": {"AtYUC6 (YUC6) [1]": {"target": "T1, AtYUC6 (YUC6) (Arabidopsis thaliana, UniProt Q8VZ59)", "T1 construct": "purified recombinant", "T1 sequence (Q8VZ59 1-417)": "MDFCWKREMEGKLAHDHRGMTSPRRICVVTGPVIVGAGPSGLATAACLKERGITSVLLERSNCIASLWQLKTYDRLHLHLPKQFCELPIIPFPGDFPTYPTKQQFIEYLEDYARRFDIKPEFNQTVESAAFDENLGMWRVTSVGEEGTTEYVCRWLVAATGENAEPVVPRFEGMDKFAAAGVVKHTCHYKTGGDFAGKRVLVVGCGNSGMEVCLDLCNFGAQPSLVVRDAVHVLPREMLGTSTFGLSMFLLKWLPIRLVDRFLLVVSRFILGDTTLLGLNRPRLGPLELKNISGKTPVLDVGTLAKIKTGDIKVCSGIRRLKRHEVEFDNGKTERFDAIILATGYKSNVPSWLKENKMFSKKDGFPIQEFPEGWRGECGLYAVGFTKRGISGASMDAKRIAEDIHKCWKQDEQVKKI", "assay": "competition with photoaffinity probe labelling", "assay_type": "binding", "conditions": "active site"}, "[2]": {"target": "T2, AtYUC1 (AtYUC1-His, YUC1) (Arabidopsis thaliana, UniProt Q9SZY8)", "T2 construct": "recombinant His-tagged, pET-53-DEST, E. coli BL21 Star (DE3), TALON purified, tag kept", "T2 sequence (Q9SZY8 1-414)": "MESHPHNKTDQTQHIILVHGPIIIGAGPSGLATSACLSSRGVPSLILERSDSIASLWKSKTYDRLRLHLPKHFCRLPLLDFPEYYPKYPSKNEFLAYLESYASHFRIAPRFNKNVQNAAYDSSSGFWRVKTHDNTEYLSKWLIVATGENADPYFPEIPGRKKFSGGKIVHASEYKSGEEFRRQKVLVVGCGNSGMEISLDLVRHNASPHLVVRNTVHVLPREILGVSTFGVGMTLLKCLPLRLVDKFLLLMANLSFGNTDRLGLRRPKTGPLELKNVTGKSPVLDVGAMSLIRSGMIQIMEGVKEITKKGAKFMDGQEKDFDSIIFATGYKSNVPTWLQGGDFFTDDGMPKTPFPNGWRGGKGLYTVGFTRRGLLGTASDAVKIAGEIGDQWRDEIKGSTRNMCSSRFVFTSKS", "assay": "LC-MS/MS of IAA formed from IPA", "assay_type": "biochemical", "conditions": "20 µM IPA, 40 µM FAD, 1 mM NADPH, 10 mM Tris-HCl pH 7.5, 35 °C, 30 min"}, "AtYUC6 (YUC6) [3]": {"target": "T1, AtYUC6 (YUC6)", "assay": "photoaffinity labelling, Staudinger-Bertozzi ligation to fluorescent phosphine, SDS-PAGE", "assay_type": "binding", "conditions": "20 µM probe, 254 nm UV, on ice, 10 mM phosphate buffer; active site, competitive with IPA and PPA; covalent; labelled compound"}},
  "data": [
    {"smiles": "O=C(O)C(=O)Cc1c[nH]c2ccccc12", "note": "[IPA]", "values": [
      {"measurement": "competition with photoaffinity probe labelling", "setting": "AtYUC6 (YUC6) [1]; 200 µM IPA against 20 µM probe", "result": "The fluorescent signal disappeared when the probe was photoactivated in the presence of the substrates"}
    ]},
    {"smiles": "O=C(O)C(=O)Cc1ccccc1", "note": "[PPA]", "values": [
      {"measurement": "competition with photoaffinity probe labelling", "setting": "AtYUC6 (YUC6) [1]; 200 µM PPA against 20 µM probe", "result": "The fluorescent signal disappeared when the probe was photoactivated in the presence of the substrates"}
    ]},
    {"smiles": "Fc1cccc(F)c1-c1n[nH]c(=S)[nH]1", "note": "[compound 1, 5-[2,6-difluorophenyl]-2,4-dihydro-[1,2,4]-triazole-3-thione]", "values": [
      {"measurement": "enzyme activity at 1 or 10 μM inhibitor", "setting": "[2]", "result": "we measured the inhibitory activity of YDF on the recombinant AtYUC1 enzyme"}
    ]},
    {"smiles": "[N-]=[N+]=NCc1cc(N=[N+]=[N-])cc(-c2n[nH]c(=S)[nH]2)c1", "note": "[photoaffinity yucasin probe]", "values": [
      {"measurement": "photoaffinity labelling, Staudinger-Bertozzi ligation to fluorescent phosphine,", "setting": "AtYUC6 (YUC6) [3]", "result": "A fluorescent signal from the photoaffinity-labeled probe of YUC6 was detected"}
    ]},
    {"smiles": "S=c1[nH]nc(-c2ccc(Cl)cc2)[nH]1", "note": "[yucasin, 5-[4-chlorophenyl]-2,4-dihydro-[1,2,4]-triazole-3-thione]", "values": [
      {"measurement": "enzyme activity at 1 or 10 μM inhibitor", "setting": "[2]", "result": "Yucasin inhibited the recombinant YUC1 enzyme activity more potent than YDF"}
    ]}
  ]
}
